Experimental findings from patent US12516081B2, “Anti-viral compounds and methods of use” (Metro International Biotech, LLC, priority 2020, dated 2026) are described below.

Where two headings read alike, the source gives them in different places.

One data set deals with SARS-CoV-2, USA-WA1/2020. Nature of the data set: Antiviral assay: inhibition of SARS-CoV-2 cytopathic effect (neutral red) in Vero 76 cells. The format is cell-based. The settings on record: read-out: Anti-viral Assay (EC50). A general note: Damage to the host cells serves as the signal in cytopathic effect assays.
For another data set, the system named is NAD in murine liver. The data set can be described thus: In vivo NAD assay, mouse liver. Conditions: 500 mg/kg oral, mice. The method, then:
FIG. 1 provides the mean composite NAD assayed concentration in mouse liver cells. The Y-axis is concentration in mmol/kg. […] The left-most bar at each time point is vehicle, the central bar is reference compound nicotinamide mononucleotide (NMN), and the right-most bar at each time point is Compound 2. Each compound is administered orally to mice at 500 mg/kg.
(§1) In vivo NAD and NAAD assay: Animals were dosed with 500 mg/kg of test compound or reference compound in vehicle.

For data set [1], the system named is NAAD in murine skeletal muscle. Nature of the data set: In vivo NAAD assay, mouse skeletal muscle. Conditions: 500 mg/kg oral, mice, 8 hour time point, FIG. 2. The method, then:
FIG. 2 provides the mean composite NAAD assayed concentration in mouse skeletal muscle cells. The Y-axis is concentration in mmol/kg. […] The left-most bar at each time point is vehicle, the central bar is reference compound nicotinamide mononucleotide (NMN), and the right-most bar at each time point is Compound 2. Each compound is administered orally to mice at 500 mg/kg.
as §1

The mark [2] stands for this setting: concentration inhibiting CPE by 50%; i) and ii) are separate determinations.

For the molecule “NAR-2′C-Methyl-6-O-methyl-5′-guanosine ester [Compound 6]”, the EC50 (commonly the midpoint of the concentration-response curve) in the data set on SARS-CoV-2, USA-WA1/2020 (setting [2]) was above 100 µM.
With “NAR-2′C-methyl 5′-uridine ester [Compound 4]”, in the data set with SARS-CoV-2, USA-WA1/2020 (setting [2]), the EC50 was above 100 µM.
Regarding `CCC(CC)COC(=O)[C@H](C)N[P@](=O)(OC[C@H]1O[C@@](C#N)(c2ccc3c(N)ncnn23)[C@H](O)[C@@H]1O)Oc1ccccc1` [Remdesivir, reference compound], in the data set with SARS-CoV-2, USA-WA1/2020 (Severe acute respiratory syndrome coronavirus 2, Vero 76, 120 h; concentration inhibiting CPE by 50%; i) and ii) are separate determinations), the EC50 was 1.9 to 6 µM.
As for “NAR-2′C-methyl-5′-guanosine ester [Compound 3]”, the EC50 in the data set with SARS-CoV-2, USA-WA1/2020 (setting [2]) was above 100 µM.
On to `N#C[C@@]1(c2ccc3c(N)ncnn23)O[C@H](COP(=O)([O-])OC[C@H]2O[C@@H]([n+]3cccc(C(=O)O)c3)[C@H](O)[C@@H]2O)[C@@H](O)[C@H]1O` [Compound 1, ((2R,3S,4R,5R)-5-(4-aminopyrrolo[2,1-f][1,2,4]triazin-7-yl)-5-cyano-3,4-dihydroxytetrahydrofuran-2-yl)methyl (((2R,3S,4R,5R)-5-(3-carboxy-1λ^4-pyridin-1-yl)-3,4-dihydroxytetrahydrofuran-2-yl)methyl)_phosphate], for which the EC50 amounted to 17 µM with SARS-CoV-2, USA-WA1/2020 (Severe acute respiratory syndrome coronavirus 2, Vero 76, 120 h, concentration inhibiting CPE by 50%; Vero 76 cells, neutral red, day 5 post-infection; i) and ii) are separate determinations); 31 µM in the data set with SARS-CoV-2, USA-WA1/2020 (concentration inhibiting CPE by 50%; Vero 76 cells, neutral red, day 5 post-infection; i) and ii) are separate determinations).
As for “((2R,3S,4R,5R)-5-(3-((((2R,3S,4R,5R)-5-(4-aminopyrrolo[2,1-f][1,2,4]triazin-7-yl)-5-cyano-3,4-dihydroxytetrahydrofuran-2-yl)methoxy)carbonyl)-1λ^4-pyridin-1-yl)-3,4-dihydroxytetrahydrofuran-2-yl)methyl hydrogen phosphate [Compound 2]”, in the data set on NAD in murine liver, the Oral availability entry is given as “orally available”. Moreover, in the data set with NAD in murine liver (8 hour time point, FIG. 1), the “NAD level in murine liver” value was “boosted”. The “NAAD level in murine skeletal muscle” value in data set [1] is “boosted”.
As to `NC(=O)c1ccc[n+]([C@@H]2O[C@H](COP(=O)([O-])O)[C@@H](O)[C@H]2O)c1` [Nicotinamide mononucleotide (NMN), Nicotinamide mononucleotide, reference compound], the EC50 in the data set with SARS-CoV-2, USA-WA1/2020 (setting [2]) was above 2000 µM.
Turning to “NAR-2′C-methyl-5′-cytidine ester [Compound 5]”, the EC50 with SARS-CoV-2, USA-WA1/2020 (setting [2]) is above 100 µM.
